Data as given in patent publication US20110002877A1, “PTEN Inhibitors Treat Neutropenia-Associated Pneumonia” (priority 2009, published 2011).

System: circulating neutrophils
Settings: day 5; two i.p. injections, total 250 mg/kg (150 mg/kg day 1, 100 mg/kg day 4)
Description: We first examined neutrophil recruitment and its bacteria-killing capability under neutropenic conditions. We induced neutropenia using a widely used chemotherapeutic drug, cyclophosphamide (Cy), which is used primarily to treat cancer.
We also examined neutrophil recruitment and its bacteria-killing capability under neutropenic conditions. We induced neutropenia using a widely used chemotherapeutic drug, cyclophosphamide (Cy).

O=P1(N(CCCl)CCCl)NCCCO1 (stereo not shown) [Cy, cyclophosphamide]
fewer circulating neutrophils than the untreated group: approximately 90%
